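GI50 = concentration required for 50% inhibition of growth. Definition used: TGI = concentration required for complete inhibition of growth.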
Columns and labels:
Test in all cases: NCI anticancer screen, dose series, 384-well format
[1] = tested on: CCRF-CEM leukemia
[2] = tested on: NCI-H460 NSCLC
[3] = tested on: M14 melanoma
[4] = tested on: HS 578T breast
[5] = tested on: MALME-3M melanoma
[6] = tested on: KM12 colon
[7] = tested on: COLO 205 colon
[8] = tested on: NCI-H23 lung
[9] = tested on: HL-60(TB) leukemia
[10] = tested on: MOLT-4 leukemia
[11] = tested on: SK-MEL-5 melanoma
[12] = tested on: SN12C renal
[13] = tested on: RPMI-8226 leukemia
[14] = tested on: DU-145 prostate
[15] = tested on: SW-620 colon
[16] = tested on: A549 NSCLC
[17] = tested on: SNB-19 CNS
[18] = tested on: SR leukemia
[19] = tested on: TK-10 renal
[20] = tested on: MCF7 breast
[21] = tested on: MDA-MB-468 breast
[22] = tested on: NCI-H522 lung
[23] = tested on: EKVX NSCLC
[24] = tested on: CAKI-1 renal
[25] = tested on: MDA-MB-231 breast
[26] = tested on: SK-OV-3 ovarian
[27] = tested on: SF-268 CNS
[28] = tested on: BT-549 breast
[29] = tested on: LOX IMVI melanoma
[30] = tested on: OVCAR-5 ovarian
[31] = tested on: OVCAR-4 ovarian
[32] = tested on: A498 renal
[33] = tested on: UACC-257 melanoma
[34] = tested on: OVCAR-3 ovarian
[35] = tested on: MDA-MB-435 melanoma
[36] = tested on: NCI-H226 lung
[37] = tested on: NCI/ADR-RES ovarian
[38] = tested on: T-47D breast
[39] = tested on: UACC-62 melanoma
[40] = tested on: UO-31 renal
[41] = tested on: K-562 leukemia
[42] = tested on: RXF 393 renal
[43] = tested on: PC-3 prostate
[44] = tested on: SK-MEL-28 melanoma
[45] = tested on: HOP-62 NSCLC
[46] = tested on: HCT-15 colon
[47] = tested on: HT29 colon
[48] = tested on: ACHN renal
[49] = tested on: OVCAR-8 ovarian
[50] = tested on: 786-0 renal
[51] = tested on: IGROV1 ovarian
[52] = tested on: NCI-H322M lung
[53] = tested on: U251 glioblastoma
[54] = tested on: SNB-75 CNS
[55] = tested on: SF-295 CNS
[56] = tested on: HCC-2998 colon
[57] = tested on: SF-539 CNS
[58] = tested on: HOP-92 NSCLC

Question: C[C@@H](CN1CC(=O)NC(=O)C1)N1CC(=O)NC(=O)C1 was tested. Which GI50 [1] did it give?
Answer: 13700 nM

Question: And the TGI [1]?
Answer: 29400 nM

Question: What about the GI50 [2] of the same molecule?
Answer: 19700 nM

Question: And the GI50 [3]?
Answer: 55700 nM

Question: What about the GI50 [4] of the same molecule?
Answer: 21200 nM

Question: And the GI50 [5]?
Answer: 34600 nM

Question: And the GI50 [6]?
Answer: 91700 nM

Question: What about the GI50 [7] of the same molecule?
Answer: 10600 nM

Question: And the TGI [7]?
Answer: 27800 nM

Question: And the GI50 [8]?
Answer: 71800 nM

Question: And the GI50 [9]?
Answer: 4320 nM

Question: What about the TGI [9] of the same molecule?
Answer: 18400 nM

Question: And the GI50 [10]?
Answer: 5070 nM

Question: And the TGI [10]?
Answer: 17200 nM

Question: What about the GI50 [11] of the same molecule?
Answer: 74800 nM

Question: What about the GI50 [12] of the same molecule?
Answer: 74400 nM

Question: What about the GI50 [13] of the same molecule?
Answer: 3650 nM

Question: And the TGI [13]?
Answer: 19700 nM

Question: And the GI50 [14]?
Answer: 52400 nM

Question: What about the GI50 [15] of the same molecule?
Answer: 83400 nM

Question: And the GI50 [16]?
Answer: 10100 nM

Question: And the GI50 [17]?
Answer: 96100 nM

Question: What about the GI50 [18] of the same molecule?
Answer: 2150 nM

Question: What about the TGI [18] of the same molecule?
Answer: 4680 nM

Question: What about the GI50 [19] of the same molecule?
Answer: 68000 nM

Question: And the GI50 [20]?
Answer: 77700 nM

Question: And the GI50 [21]?
Answer: 29100 nM

Question: What about the TGI [21] of the same molecule?
Answer: 57900 nM

Question: What about the GI50 [22] of the same molecule?
Answer: 53900 nM

Question: Which GI50 [23] does the source give for Nc1ncnc2c1c(-c1cccc(OCc3ccccc3)c1)cn2C1CC(CN2CCC2)C1 (stereo not given) here?
Answer: 1410 nM

Question: What about the TGI [23] of the same molecule?
Answer: 3100 nM

Question: And the GI50 [24]?
Answer: 1650 nM

Question: What about the TGI [24] of the same molecule?
Answer: 3220 nM

Question: What about the GI50 [25] of the same molecule?
Answer: 1660 nM

Question: And the TGI [25]?
Answer: 3340 nM

Question: What about the GI50 [1] of the same molecule?
Answer: 2080 nM

Question: And the TGI [1]?
Answer: 3520 nM

Question: What about the GI50 [26] of the same molecule?
Answer: 1750 nM

Question: And the TGI [26]?
Answer: 3160 nM

Question: What about the GI50 [27] of the same molecule?
Answer: 1810 nM

Question: What about the TGI [27] of the same molecule?
Answer: 3230 nM

Question: And the GI50 [28]?
Answer: 1370 nM

Question: What about the TGI [28] of the same molecule?
Answer: 2680 nM

Question: And the GI50 [2]?
Answer: 1340 nM

Question: What about the TGI [2] of the same molecule?
Answer: 2690 nM

Question: What about the GI50 [29] of the same molecule?
Answer: 1610 nM

Question: And the TGI [29]?
Answer: 2970 nM

Question: And the GI50 [30]?
Answer: 1300 nM

Question: And the TGI [30]?
Answer: 2860 nM

Question: And the GI50 [3]?
Answer: 1620 nM

Question: And the TGI [3]?
Answer: 2980 nM

Question: And the GI50 [31]?
Answer: 1890 nM

Question: And the TGI [31]?
Answer: 4040 nM

Question: And the GI50 [4]?
Answer: 1820 nM

Question: What about the TGI [4] of the same molecule?
Answer: 3230 nM

Question: What about the GI50 [5] of the same molecule?
Answer: 1060 nM

Question: What about the TGI [5] of the same molecule?
Answer: 2250 nM

Question: What about the GI50 [32] of the same molecule?
Answer: 1490 nM

Question: What about the TGI [32] of the same molecule?
Answer: 2830 nM

Question: And the GI50 [33]?
Answer: 1130 nM

Question: What about the TGI [33] of the same molecule?
Answer: 2350 nM

Question: And the GI50 [6]?
Answer: 1820 nM

Question: What about the TGI [6] of the same molecule?
Answer: 3760 nM

Question: And the GI50 [34]?
Answer: 1760 nM

Question: What about the TGI [34] of the same molecule?
Answer: 3450 nM

Question: And the GI50 [7]?
Answer: 327 nM

Question: And the TGI [7]?
Answer: 1440 nM

Question: What about the GI50 [35] of the same molecule?
Answer: 1280 nM

Question: And the TGI [35]?
Answer: 2570 nM

Question: And the GI50 [36]?
Answer: 1190 nM

Question: What about the TGI [36] of the same molecule?
Answer: 2960 nM

Question: What about the GI50 [37] of the same molecule?
Answer: 1760 nM

Question: And the TGI [37]?
Answer: 3420 nM

Question: And the GI50 [38]?
Answer: 1490 nM

Question: And the TGI [38]?
Answer: 2900 nM

Question: What about the GI50 [39] of the same molecule?
Answer: 1510 nM

Question: What about the TGI [39] of the same molecule?
Answer: 2840 nM

Question: What about the GI50 [8] of the same molecule?
Answer: 1100 nM

Question: What about the TGI [8] of the same molecule?
Answer: 2490 nM

Question: And the GI50 [9]?
Answer: 182 nM

Question: What about the TGI [9] of the same molecule?
Answer: 1030 nM

Question: What about the GI50 [40] of the same molecule?
Answer: 1610 nM

Question: And the TGI [40]?
Answer: 3020 nM

Question: What about the GI50 [10] of the same molecule?
Answer: 1770 nM

Question: And the TGI [10]?
Answer: 3160 nM

Question: And the GI50 [11]?
Answer: 704 nM

Question: What about the TGI [11] of the same molecule?
Answer: 2000 nM

Question: What about the GI50 [41] of the same molecule?
Answer: 1690 nM

Question: What about the TGI [41] of the same molecule?
Answer: 3100 nM

Question: What about the GI50 [42] of the same molecule?
Answer: 1590 nM

Question: And the TGI [42]?
Answer: 2970 nM

Question: What about the GI50 [43] of the same molecule?
Answer: 1800 nM

Question: What about the TGI [43] of the same molecule?
Answer: 3460 nM

Question: And the GI50 [12]?
Answer: 2310 nM

Question: What about the TGI [12] of the same molecule?
Answer: 5800 nM

Question: What about the GI50 [13] of the same molecule?
Answer: 1830 nM

Question: What about the TGI [13] of the same molecule?
Answer: 3230 nM

Question: And the GI50 [14]?
Answer: 2650 nM

Question: And the TGI [14]?
Answer: 11000 nM

Question: What about the GI50 [44] of the same molecule?
Answer: 1430 nM

Question: And the TGI [44]?
Answer: 2740 nM

Question: What about the GI50 [15] of the same molecule?
Answer: 1330 nM

Question: What about the TGI [15] of the same molecule?
Answer: 2630 nM

Question: What about the GI50 [45] of the same molecule?
Answer: 1820 nM

Question: And the TGI [45]?
Answer: 3250 nM

Question: And the GI50 [16]?
Answer: 1550 nM

Question: What about the TGI [16] of the same molecule?
Answer: 3070 nM

Question: What about the GI50 [17] of the same molecule?
Answer: 2530 nM

Question: And the TGI [17]?
Answer: 7280 nM

Question: What about the GI50 [46] of the same molecule?
Answer: 1280 nM

Question: What about the TGI [46] of the same molecule?
Answer: 2590 nM

Question: And the GI50 [47]?
Answer: 336 nM

Question: And the TGI [47]?
Answer: 1720 nM

Question: And the GI50 [48]?
Answer: 1910 nM

Question: And the TGI [48]?
Answer: 3710 nM

Question: And the GI50 [18]?
Answer: 1650 nM

Question: What about the TGI [18] of the same molecule?
Answer: 3020 nM

Question: And the GI50 [49]?
Answer: 1610 nM

Question: And the TGI [49]?
Answer: 3010 nM

Question: And the GI50 [50]?
Answer: 1610 nM

Question: And the TGI [50]?
Answer: 2970 nM

Question: What about the GI50 [51] of the same molecule?
Answer: 2180 nM

Question: What about the TGI [51] of the same molecule?
Answer: 4870 nM

Question: And the GI50 [52]?
Answer: 1650 nM

Question: And the TGI [52]?
Answer: 4490 nM

Question: What about the GI50 [53] of the same molecule?
Answer: 1870 nM

Question: What about the TGI [53] of the same molecule?
Answer: 3390 nM

Question: And the GI50 [54]?
Answer: 1920 nM

Question: And the TGI [54]?
Answer: 3520 nM

Question: And the GI50 [19]?
Answer: 1610 nM

Question: What about the TGI [19] of the same molecule?
Answer: 3240 nM

Question: And the GI50 [55]?
Answer: 1890 nM

Question: And the TGI [55]?
Answer: 3310 nM

Question: And the GI50 [20]?
Answer: 360 nM

Question: What about the TGI [20] of the same molecule?
Answer: 1680 nM

Question: What about the GI50 [56] of the same molecule?
Answer: 1400 nM

Question: What about the TGI [56] of the same molecule?
Answer: 2720 nM

Question: What about the GI50 [57] of the same molecule?
Answer: 1760 nM

Question: And the TGI [57]?
Answer: 3150 nM

Question: What about the GI50 [58] of the same molecule?
Answer: 1140 nM

Question: What about the TGI [58] of the same molecule?
Answer: 2360 nM

Question: What about the GI50 [21] of the same molecule?
Answer: 1330 nM

Question: And the TGI [21]?
Answer: 2630 nM

Question: And the GI50 [22]?
Answer: 1720 nM

Question: And the TGI [22]?
Answer: 3120 nM

From PubChem BioAssay (NCI)
